Assays:
[1] = molar heat capacity at constant pressure; details: Liquid, calorimeter with the thermal relaxation.
[2] = molar heat capacity at constant pressure; xn = mol fraction of the nth substance listed; details: Liquid, calorimeter with the thermal relaxation.

N [ammonia]
[1]
Details | molar heat capacity at constant pressure [J/K/mol]
280 K, 1000 kPa | 76.81
280 K, 5000 kPa | 75.62
300 K, 5000 kPa | 76.81
320 K, 5000 kPa | 77.83
360 K, 5000 kPa | 95.2
360 K, 10000 kPa | 92.82
360 K, 15000 kPa | 90.26

N [ammonia] + O
molar heat capacity at constant pressure [J/K/mol], [2]
Details | x2 = 0 | x2 = 0.1566 | x2 = 0.1597 | x2 = 0.303 | x2 = 0.3048 | x2 = 0.4956 | x2 = 0.7061 | x2 = 0.8489
280 K, 100 kPa | – | – | – | – | – | – | 68.95 | 70.04
280 K, 1000 kPa | 76.81 | 76.13 | – | 71.92 | – | 76.38 | 69.48 | 70.93
280 K, 5000 kPa | 75.62 | 74.58 | – | 74.17 | – | 76.03 | 72.68 | 72.89
300 K, 100 kPa | – | – | – | – | – | – | – | 73.25
300 K, 1000 kPa | – | 78.19 | – | 77.63 | – | 80.94 | 75.33 | 74.86
300 K, 5000 kPa | 76.81 | 76.13 | – | 77.29 | – | 78.83 | 76.58 | 74.86
320 K, 1000 kPa | – | – | – | – | – | 79.71 | 75.51 | 73.97
320 K, 5000 kPa | 77.83 | 77.85 | – | 80.93 | – | 82.86 | 79.41 | 77.18
360 K, 1000 kPa | – | – | – | – | – | – | 79.77 | 76.11
360 K, 5000 kPa | 95.2 | – | 85.94 | – | 84.92 | 83.21 | 81.72 | 77.54
360 K, 10000 kPa | 92.82 | – | 86.97 | – | 88.21 | 85.32 | 84.55 | 80.04
360 K, 15000 kPa | 90.26 | – | 86.11 | – | 86.65 | 85.84 | 84.73 | 79.69

— the NIST ThermoML archive (doi:10.1016/j.jct.2007.06.013)
